Assay results: patent publication US9365612B2, “Caspase inhibitors” (United States of America as represented by the Secretary, …, priority 2010, dated 2016)

Tests used:
[1] = molecular target: T1, caspase 14 (Homo sapiens, UniProt P31944); assay: commercial panel of caspases (Reaction Biology Corporation), caspase 14; assay type: biochemical; settings: read-out: IC50 versus caspase 14
T1 construct: purchased Reaction Biology Corporation
T1 sequence (P31944 6-146 limits assumed): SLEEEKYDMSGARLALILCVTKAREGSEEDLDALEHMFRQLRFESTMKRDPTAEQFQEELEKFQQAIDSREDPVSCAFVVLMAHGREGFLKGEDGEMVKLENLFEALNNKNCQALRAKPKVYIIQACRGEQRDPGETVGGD
T1 sequence (P31944 153-242 limits assumed): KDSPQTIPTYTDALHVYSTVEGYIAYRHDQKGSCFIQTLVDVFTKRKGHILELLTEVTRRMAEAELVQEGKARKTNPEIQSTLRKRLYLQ
Description: (§1) Having established that the compounds (3), (4) and (16) are potent inhibitors of caspase 1, the selectivity of these agents was examined. […] Wannamaker, W.; Davies, R.; Namchuk, M.; Pollard, J.; Ford, P.; Ku, G.; Decker, C.; Charifson, P.; Weber, P.; Germann, U. A.; Kuida, K.; Randle, J. C. R. J. Pharmacol. Exp. Ther. 2007, 321, 509-516. […] VRT-043198 (2b), NCGC00185682 (3), NCGC00183434 (4) and NCGC00183681 (16) were entered within a commercial panel of caspases offered by Reaction Biology Corporation. […] A particularly interesting aspect of these molecules was the high selectivity for caspase 1. […] All other activities were about the 1 μM threshold.

[2] = microsomal stability (both human and rat); assay type: in vitro ADME; settings: for clearance rates (Clint) / t ½: species not given
Experimental: (§2) Given the aqueous stability of these new agents, selected ADME properties for chosen compounds were also examined. VX-765 (1), VRT-043198 (2b), NCGC00185682 (3), NCGC00183434 (4) and NCGC00183681 (16) were evaluated for a profile of bi-directional Caco-2 permeability, plasma protein binding (both human and rat) and microsomal stability (both human and rat) studies (FIG. 9, Table 2). […] The clearance rates (Clint) and t ½ for VRT-043198 (2b), NCGC00185682 (3), NCGC00183434 (4) and NCGC00183681 (16) were all moderate.

[3] = molecular target: T2, caspase 1 (Homo sapiens, UniProt P29466); assay: caspase 1 inhibition assay with caged fluorescent peptide substrate (Ac-LEHD-AMC); assay type: biochemical; settings: 2 nM enzyme, 20 minutes at room temperature, fluorescence detection, read-out: IC50 versus caspase 1
T2 sequence (P29466 120-297 limits assumed): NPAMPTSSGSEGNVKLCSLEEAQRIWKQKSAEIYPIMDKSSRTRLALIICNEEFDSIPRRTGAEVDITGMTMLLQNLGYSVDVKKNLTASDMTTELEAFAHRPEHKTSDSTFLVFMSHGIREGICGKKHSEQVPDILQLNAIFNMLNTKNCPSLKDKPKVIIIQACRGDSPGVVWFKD
T2 sequence (P29466 317-404 limits assumed): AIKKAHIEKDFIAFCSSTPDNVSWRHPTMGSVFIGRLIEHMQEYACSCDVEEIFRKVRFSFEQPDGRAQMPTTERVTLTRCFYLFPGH
Experimental: Each agent's inhibitory capacity versus caspase 1 was evaluated. A well established protocol was utilized whereby caspase 1 activity is measured utilizing 2 nM enzyme in the presence and absence of compound and a caged fluorescent peptide substrate (Ac-LEHD-AMC). Wannamaker et al, Journal of Pharmacology and Experimental Therapeutics, 2007, 321, 509-516. The compounds were examined across a titration series (0.325 nM→57.5 μM) and data was recorded via fluorescence detection following an incubation period of 20 minutes at room temperature.

[4] = plasma protein binding, human; assay type: in vitro ADME; settings: relative to VX-765 (1) and NCGC00185682 (3)
Experimental: as §2

[5] = aqueous degradation study by LCMS over 96 hours; assay type: physicochemical; settings: for aqueous stability in acidic conditions (pH 2): pH 2, LCMS; for aqueous stability in acidic conditions (pH 2) / aqueous stability in neutral conditions (water, pH 7) / aqueous stability in basic conditions (pH 8): over 96 hours; for aqueous stability in neutral conditions (water, pH 7): pH 7, LCMS; for aqueous stability in basic conditions (pH 8): pH 8, LCMS
Experimental: In order to evaluate the agent's stability profile, VX-765 (1), VRT-043198 (2b), NCGC00185682 (3), NCGC00183434 (4) and NCGC00183681 (16) were examined within an aqueous degradation study at neutral (pH 7) acidic (pH 2) and basic (pH 8) conditions. The study was conducted by monitoring the degradation of each agent by LCMS analysis at various time points over 96 hours (FIG. 8). […] This degradation was amplified in both basic and acidic conditions. Conversely, the active agent VRT-043198 (2b) was very stable in both water and acidic conditions and its degradation at pH 8 was moderate.

[6] = plasma protein binding, rat; assay type: in vitro ADME; settings: relative to VX-765 (1) and NCGC00185682 (3)
Experimental: as §2

[7] = molecular target: T2, caspase 1; assay: commercial panel of caspases (Reaction Biology Corporation), caspase 1; assay type: biochemical; settings: read-out: IC50 versus caspase 1
Description: as §1

[8] = molecular target: T3, caspase 9 (Homo sapiens, UniProt P55211); assay: commercial panel of caspases (Reaction Biology Corporation), caspase 9; assay type: biochemical; settings: read-out: IC50 versus caspase 9
T3 construct: purchased Reaction Biology Corporation
T3 sequence (P55211 1-315 limits assumed): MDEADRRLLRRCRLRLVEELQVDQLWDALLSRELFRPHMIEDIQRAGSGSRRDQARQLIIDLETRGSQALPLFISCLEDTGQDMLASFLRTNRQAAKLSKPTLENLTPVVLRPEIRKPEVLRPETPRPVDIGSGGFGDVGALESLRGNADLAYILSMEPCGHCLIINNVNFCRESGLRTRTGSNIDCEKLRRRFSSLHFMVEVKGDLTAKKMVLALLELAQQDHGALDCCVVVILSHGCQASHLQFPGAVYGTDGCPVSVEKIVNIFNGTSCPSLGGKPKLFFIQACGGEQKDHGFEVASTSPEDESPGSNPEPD
T3 sequence (P55211 331-416 limits assumed): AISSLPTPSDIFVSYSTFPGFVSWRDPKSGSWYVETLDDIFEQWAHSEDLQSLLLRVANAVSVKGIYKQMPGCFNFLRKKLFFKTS
Description: as §1

[9] = test system: Caco-2; assay: bi-directional Caco-2 permeability; assay type: in vitro ADME
Experimental: as §2

[10] = molecular target: T4, Pgp (Homo sapiens, UniProt P08183); assay: Caco-2 control experiment with verapamil (Pgp efflux); assay type: in vitro ADME
T4 construct: endogenous in cells; host or cells: Caco-2
Experimental: as §2

[11] = molecular target: T5, caspase 4 (Homo sapiens, UniProt P49662); assay: commercial panel of caspases (Reaction Biology Corporation), caspase 4; assay type: biochemical; settings: read-out: IC50 versus caspase 4
T5 construct: purchased Reaction Biology Corporation
T5 sequence (P49662 81-270 limits assumed): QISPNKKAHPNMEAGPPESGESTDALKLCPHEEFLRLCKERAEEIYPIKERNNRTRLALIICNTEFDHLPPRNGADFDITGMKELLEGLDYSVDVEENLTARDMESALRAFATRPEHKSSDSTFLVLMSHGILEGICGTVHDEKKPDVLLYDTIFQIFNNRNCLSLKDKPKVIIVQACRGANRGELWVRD
T5 sequence (P49662 290-377 limits assumed): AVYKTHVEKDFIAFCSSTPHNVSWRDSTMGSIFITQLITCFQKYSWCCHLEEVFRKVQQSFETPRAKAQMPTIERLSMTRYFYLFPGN
Description: as §1

[12] = molecular target: T3, caspase 9; settings: reported by Randle and coworkers (Wannamaker et al. 2007); read-out: Ki versus caspase 9; cited from earlier work
[13] = molecular target: T6, caspase 6 (Homo sapiens, UniProt P55212); assay: commercial panel of caspases (Reaction Biology Corporation), caspase 6; assay type: biochemical; settings: read-out: IC50 versus caspase 6
T6 sequence (P55212 24-179 limits assumed): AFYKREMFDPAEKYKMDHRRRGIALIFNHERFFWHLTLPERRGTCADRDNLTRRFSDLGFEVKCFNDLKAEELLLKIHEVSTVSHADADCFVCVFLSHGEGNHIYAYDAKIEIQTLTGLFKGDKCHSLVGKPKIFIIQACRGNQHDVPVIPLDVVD
T6 sequence (P55212 194-293 limits assumed): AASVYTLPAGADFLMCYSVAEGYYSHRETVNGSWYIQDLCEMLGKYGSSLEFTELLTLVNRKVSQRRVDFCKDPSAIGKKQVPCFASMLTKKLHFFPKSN
Description: as §1

[14] = molecular target: T7, caspase 8 (Homo sapiens, UniProt Q14790); settings: reported by Randle and coworkers (Wannamaker et al. 2007); read-out: Ki versus caspase 8; cited from earlier work
[15] = molecular target: T2, caspase 1; settings: reported by Randle and coworkers (Wannamaker et al. 2007); read-out: Ki versus caspase 1; cited from earlier work
[16] = molecular target: T7, caspase 8; assay: commercial panel of caspases (Reaction Biology Corporation), caspase 8; assay type: biochemical; settings: read-out: IC50 versus caspase 8
Description: as §1

[17] = molecular target: T5, caspase 4; settings: reported by Randle and coworkers (Wannamaker et al. 2007); read-out: Ki versus caspase 4; cited from earlier work
[18] = molecular target: T6, caspase 6; settings: reported by Randle and coworkers (Wannamaker et al. 2007); read-out: Ki versus caspase 6; cited from earlier work
[19] = test system: caspases 3, 7, granzyme B, cathepsin B and tyrpsin; settings: reported by Randle and coworkers; cited from earlier work

T4 sequence (P08183 whole entry): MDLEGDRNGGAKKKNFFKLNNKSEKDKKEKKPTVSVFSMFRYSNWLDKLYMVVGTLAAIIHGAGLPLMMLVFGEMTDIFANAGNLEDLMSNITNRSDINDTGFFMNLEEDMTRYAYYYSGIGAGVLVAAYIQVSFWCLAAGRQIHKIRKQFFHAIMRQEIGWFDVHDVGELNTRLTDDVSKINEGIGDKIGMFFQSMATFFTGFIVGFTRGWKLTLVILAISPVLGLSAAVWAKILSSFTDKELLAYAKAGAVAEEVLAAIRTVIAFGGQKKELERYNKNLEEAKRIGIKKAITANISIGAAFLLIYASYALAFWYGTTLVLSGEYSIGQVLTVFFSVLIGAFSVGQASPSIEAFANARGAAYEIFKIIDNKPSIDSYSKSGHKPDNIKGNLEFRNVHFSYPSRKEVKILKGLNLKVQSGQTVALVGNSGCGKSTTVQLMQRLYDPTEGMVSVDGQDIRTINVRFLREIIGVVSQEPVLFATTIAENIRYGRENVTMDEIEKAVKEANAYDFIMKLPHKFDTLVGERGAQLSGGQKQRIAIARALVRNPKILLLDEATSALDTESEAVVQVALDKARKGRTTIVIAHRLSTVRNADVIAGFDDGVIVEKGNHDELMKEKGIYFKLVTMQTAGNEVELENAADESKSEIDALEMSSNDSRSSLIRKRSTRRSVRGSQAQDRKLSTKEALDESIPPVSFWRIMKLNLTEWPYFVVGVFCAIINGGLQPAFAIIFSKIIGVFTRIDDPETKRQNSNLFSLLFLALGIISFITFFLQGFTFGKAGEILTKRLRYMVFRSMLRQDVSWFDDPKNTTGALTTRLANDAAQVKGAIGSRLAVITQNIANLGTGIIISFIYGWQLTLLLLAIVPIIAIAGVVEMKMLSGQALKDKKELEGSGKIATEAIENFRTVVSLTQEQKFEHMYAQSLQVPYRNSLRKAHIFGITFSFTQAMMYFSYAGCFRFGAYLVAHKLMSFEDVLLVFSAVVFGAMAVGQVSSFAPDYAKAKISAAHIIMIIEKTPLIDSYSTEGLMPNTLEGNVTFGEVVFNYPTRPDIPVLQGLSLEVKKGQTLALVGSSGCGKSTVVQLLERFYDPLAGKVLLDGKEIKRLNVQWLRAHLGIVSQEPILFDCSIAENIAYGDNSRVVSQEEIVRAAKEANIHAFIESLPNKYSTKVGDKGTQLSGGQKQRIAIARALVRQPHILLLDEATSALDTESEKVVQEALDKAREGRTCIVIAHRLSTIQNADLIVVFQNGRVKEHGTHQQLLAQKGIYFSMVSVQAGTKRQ
T7 sequence (Q14790 217-374 limits assumed): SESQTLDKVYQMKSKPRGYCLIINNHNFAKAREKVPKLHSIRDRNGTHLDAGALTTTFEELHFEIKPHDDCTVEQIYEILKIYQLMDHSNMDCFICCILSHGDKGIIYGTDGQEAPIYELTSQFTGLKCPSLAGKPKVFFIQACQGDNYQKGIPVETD
T7 sequence (Q14790 385-479 limits assumed): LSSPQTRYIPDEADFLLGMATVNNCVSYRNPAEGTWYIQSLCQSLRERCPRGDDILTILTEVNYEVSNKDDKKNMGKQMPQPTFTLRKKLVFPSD

Structure (SMILES) | clearance rates (Clint) ([2]; liver microsomes) | t ½ ([2]; liver microsomes) | IC50 [3] [nM] | free fraction in protein binding assay [4] | aqueous stability in acidic conditions (pH 2) [5] | aqueous stability in neutral conditions (water, pH 7) [5] | aqueous stability in basic conditions (pH 8) [5] | free fraction in protein binding assay [6] | IC50 [7] [nM] | Caco-2 A to B permeability [9] | Caco-2 B to A levels [9] | Pgp efflux substrate [10] | IC50 [1] [nM] | IC50 [8] [nM] | further results
CC(C)(C)C(NC(=O)c1ccc(N)c(Cl)c1)C(=O)N1CCCC1C(=O)NC(C#N)CC(=O)O (stereo not shown) [NCGC00183434 (4)] | moderate | moderate | 0.316 | significantly higher | moderate to good | moderate to good | exceedingly stable | significantly higher | 0.023 | – | – | – | 801 | – | degradation in acidic conditions ([5]; acidic (pH 2), after 72 hours): 50%; degradation in neutral conditions ([5]; neutral (pH 7), after 72 hours): 50%; persistence in aqueous conditions ([5]; suggested from the degradation data): > 24 h
CC(C)(C)C(NC(=O)c1ccc(N)c(Cl)c1)C(=O)N1CCCC1C(=O)NC(C#N)Cc1nnn[nH]1 (stereo not shown) [NCGC00183681 (16)] | moderate | moderate | 20.4 | significantly higher | resistant to degradation | resistant to degradation | resistant to degradation | significantly higher | 2.58 | – | – | – | – | 91.5 | –
CC(C)(C)[C@H](NC(=O)c1ccc(N)c(Cl)c1)C(=O)N1CCC[C@H]1C(=O)N[C@H](C=O)CC(=O)O [VRT-043198 (2b), reference compound] | moderate | moderate | 11.5 | significantly higher | very stable | very stable | moderate | significantly higher | 0.204 | – | – | – | 58.5 | 5.07 | IC50 [11]: 14.5 nM; Ki [12]: 1030 nM; IC50 [13]: > 10000 nM; Ki [14]: 100 nM; Ki [15]: < 1 nM; IC50 [16]: 3.3 nM; Ki [17]: < 1 nM; Ki [18]: 560 nM; activity versus the remaining targets [19]: little activity

Second part, led by results:

clearance rates (Clint) ([2]; liver microsomes) | t ½ ([2]; liver microsomes) | IC50 [3] [nM] | free fraction in protein binding assay [4] | aqueous stability in acidic conditions (pH 2) [5] | aqueous stability in neutral conditions (water, pH 7) [5] | aqueous stability in basic conditions (pH 8) [5] | free fraction in protein binding assay [6] | IC50 [7] [nM] | Caco-2 A to B permeability [9] | Caco-2 B to A levels [9] | Pgp efflux substrate [10] | Structure (SMILES) | IC50 [1] [nM] | IC50 [8] [nM] | further results
moderate | moderate | 145 | – | exceptionally stable | exceptionally stable | – | – | 43.4 | moderately better levels | high | substrates for Pgp efflux | CCOC(=O)CC(C#N)NC(=O)C1CCCN1C(=O)C(NC(=O)c1ccc(N)c(Cl)c1)C(C)(C)C (stereo not shown) [NCGC00185682 (3)] | – | – | degradation in liver microsomes without NADPH ([2]; without NADPH as a cofactor): slight degree of degradation; degradation in basic conditions ([5]; basic (pH 8), after 22 hours): fully degraded
– | – | – | – | amplified | moderate degradation | amplified | – | – | moderately better levels | high | substrates for Pgp efflux | CCO[C@@H]1OC(=O)C[C@@H]1NC(=O)[C@@H]1CCCN1C(=O)[C@@H](NC(=O)c1ccc(N)c(Cl)c1)C(C)(C)C [VX-765 (1), reference compound] | – | – | metabolism by liver microsomes ([2]; liver microsomes): minimal ability to be metabolized; half-life ([2]; liver microsomes, read-out: t ½): > 157 h; degradation at pH 2 ([5]; pH 2, after 3.5 hours): 40%; compound decomposed in water ([5]; water (pH 7), after 48 hours): over 50%
